≈ marks a conversion by molar mass, not a printed value. Where “and” joins values, the source holds several entries; their conditions need not be identical. Identical values can stand only once. Like-named read-outs stand apart in the source and are kept apart here.
Columns and labels:
Assay type in all cases: physicochemical
[1] = Biphasic four-pH sector dissolution with 1-decanol lipid layer (Pion inForm); conditions: for Transfer of AD towards the organic layer (1-decanol): pH 4.0 sector
Method: The third set of measurements were performed using a Pion inForm automated titrator system from Pion (Pion-Inc., Billerica, MA, USA, www.pion-inc.com) with an incorporated UV-Vis spectrophotometer to acquire the spectrophotometric data. The optical system also consisted of a photodiode array detector with a deuterium lamp and included two fiber optic dip probes. The titrator module included a temperature controller (a Peltier device with in-situ thermocouple), pH electrode, an overhead stirrer and motorized dispensers for the automatic delivery of assay titrants and reagents via capillaries. The instrumentation was operated by inForm Control and Assay Designer software (version 1.6.0.0). The Pion inForm system was used for the biphasic dissolution studies. Samples were prepared as described previously, and studies were performed consecutively through the four different pH sectors, with the addition of a lipid layer (1-decanol) in the second sector to mimic the absorption in the GIT. The dissolution media consisted of 40 mL of aqueous solution, which was added automatically to an 80 mL dissolution vessel and brought to 25 °C (±0.1 °C). Once the media were adjusted to the starting pH and temperature, each sample was added automatically, and data collection was started from the point of sample introduction. The lipid layer (30 mL) was added in the second pH sector after the pH was adjusted to 4.0 (see Table S4 for exact experimental details). The two UV optic fiber probes each with a 10mm path length, were used on the inForm platform for quantitating the drug in the aqueous phase and in the lipid layer. Stirring of the solution was continuous at a rate of 100 rpm through the four sectors. Spectral and pH data were collected with a frequency of 30 s over a period of 2 h.
Contrary to GLpKa, which has a fixed probe with a 10 mm path length that cannot be exchangeable with different path length size tips, Pion inForm is provided with two UV probes, both with a 10 mm path length: a fixed path-length and an exchangeable path-length. These probes were used for the aqueous and the lipid media, respectively. In this way, the UV data collected for the three cocrystals could be quantified using the MECs of orcinol, resorcinol and hydroquinone. Moreover, in the inForm system a greater volume of solution is used (40 mL instead of 15 mL of water used for the GLpKa). Therefore, the signal was not saturated, and the UV spectra for the coformers and the adefovir could be distinguished between them.
In order to study dissolution under conditions that mimic in vivo conditions more closely than other systems, the final set of experiments was carried out in a biphasic dissolution system. The test consists again in a four-pH sectors experiment, but in this case, 1-decanol was added in the second sector (pH 4.0) to simulate the contact with lipidic membranes. Then, the API concentration was monitored simultaneously in both phases through two different optic fiber probes.

pKa determination = experiment: pKa determination
[2] = Dissolution in a four-pH sector sequence (pH 1.5 to 7.4, 30 min at each pH, GLpKa)
Method: A second set of experiments was performed with the same instrument. However, determinations were made in a full sequence of pHs (from 1.5 to 7.4) maintained for 30 min at each individual pH. To change the pH, KOH was added to the medium (Table S3).
Compared to the single-pH experiments, the four-pH sectors determination provides dynamic information of the dissolution behavior of the compounds along the GIT. Now, the dissolution test starts at pH 1.5, and dissolution is monitored for 30 min. Then, the pH is raised to 4.0, 5.5, and finally, 7.4, monitoring dissolution for 30 min at each pH.

[3] = XRPD analysis of the tablet surface after the single-pH dissolution experiments
Method: X-ray powder diffraction (XRPD) patterns of new cocrystals of AD were measured on a PANalytical (Malvern, UK) X’Pert PRO MPD (transmission configuration with Cu Kα radiation, λ = 1.54187 Å) with a focalizing elliptic mirror and a PIXcel detector and a maximum detector’s active length of 3.347°. Transmission geometry configuration included a convergent beam with a focalizing mirror, a flat sample sandwiched between low absorbing films measuring from 1 to 40° in 2θ, a step size of 0.026° and a measuring time of 8 to 30 min at room temperature (25 °C). Capillary geometry has been used with AD–Resorcinol (Form I) placed in a glass capillary (Lindemman) 0.5 mm in diameter measuring from 2 to 70° in 2θ, with a step size of 0.013° and a total measuring time of 18 h. The powder diffractograms were indexed and the lattice parameters were refined by means of Le Bail fits by means of Dicvol04 [35], and the space group was determined from the systematic absences.
The first set of studies was performed at different pH sectors (1.5, 4.0, 5.5 and 7.4) which are typically encountered in the gastrointestinal tract (GIT), and individual dissolution rates were determined at each pH sector. To perform these experiments, disks of 3mm diameter containing 6–10 mg of the drug or cocrystal were prepared by applying a constant pressure of 0.1 ton for 2 min with a manual hydraulic tablet press (Applied Measurements Specac Ltd, Orpington UK). The tablet was placed in a holder, and only one side of the tablet was exposed to the dissolution medium. The total exposed surface area was 0.07 cm^2. A total of 1.5 mL of 0.125 M acetate–phosphate buffer at pH 1.6 was introduced into the vial without wetting the tablet surface. The instrument then automatically added 13.5 mL of 0.15 M KCl solution and adjusted the pH to the required value (see Table S2 for exact experimental details). Spectra collection started immediately after. Spectra were recorded every 30 s for 30 min. The medium was stirred at a constant rate. The solid state of the remaining disks was analyzed using XRPD.
The XRPD analysis of the tablet surface after the dissolution experiments confirms that there is some transformation of the solid form. The highest transformation occurs for AD tablets, where 20% of the initial AD (Form I) is transformed into the dihydrate. This transformation is reproducible, as deduced by the low error bars in the dissolution profiles. In the case of cocrystals, they mainly remain in its original solid form; the 5–10% of the free AD (Form I) observed in the analysis of the tablets could be the result of AD deposition during the experiments since the saturation concentration is reached very quickly, rather than a solid phase transformation in the surface of the tablet.

[4] = Intrinsic dissolution at individual pH sectors (GLpKa, 3 mm disks, 30 min); conditions: for solubility at 30 min: acetate–phosphate buffer with KCl; for Dissolution Rate: fit of Noyes–Whitney equation; for % Dissolved at t = 30 min: single-pH sector
[5] = pH 1.5, SD in parenthesis, n = 3
[6] = pH 4.0, SD in parenthesis, n = 3
[7] = pH 5.5, SD in parenthesis, n = 3
[8] = pH 7.4, SD in parenthesis, n = 3

Row | SMILES | Transfer of AD towards the organic layer (1-decanol) [1] | Final Solid Form on tablet surface after dissolution ([3]; pH 1.5) | Final Solid Form on tablet surface after dissolution ([3]; pH 4.0) | Final Solid Form on tablet surface after dissolution ([3]; pH 5.5) | Final Solid Form on tablet surface after dissolution ([3]; pH 7.4) | Dissolution Rate [4, 5] | % Dissolved at t = 30 min [4, 5] | Dissolution Rate [4, 6] | % Dissolved at t = 30 min [4, 6] | Dissolution Rate [4, 7] | % Dissolved at t = 30 min [4, 7] | Dissolution Rate [4, 8] | % Dissolved at t = 30 min [4, 8] | also measured
1 | CC(C)(C)C(=O)OCOP(=O)(COCCn1cnc2c(N)ncnc21)OCOC(=O)C(C)(C)C [AD, 9-{2-[Bis(pivaloyloxymethoxy)phosphinylmethoxy]ethyl}adenine] | even slower | Form I + AD–dihydrate (80%:20%) | Form I + AD–dihydrate (80%:20%) | Form I + AD–dihydrate (80%:20%) | Form I + AD–dihydrate (80%:20%) | 315 (4) nmols/min | 29.0 (1.0) % | 35 (4) nmols/min | 5.7% and 5.7 (0.4) % | 21 (4) nmols/min | 3.8% and 3.8 (0.6) % | 17 (2) nmols/min | 3.3% and 3.3 (0.4) % | pKa (pKa determination): 3.78 ± 0.05; % of API dissolved, four-pH sector test ([2]; pH 1.5 sector): 30%; % of AD in solution, four-pH sector test ([2]; pH 4.0 sector): 25%; % of AD in solution, four-pH sector test ([2]; pH 5.5 sector): 20%; % of AD in solution, four-pH sector test ([2]; pH 7.4 sector): 20%; Share of the initial solid form transformed / other form found on tablet after dissolution ([3]; XRPD of tablet surface): 20%; solubility at 30 min ([4]; aqueous buffer, thermodynamic from solid, pH 1.5, SD in parenthesis, n = 3, read-out: AD Solubility): 325 µM (≈ 163 µg/mL); solubility at 30 min ([4]; aqueous buffer, thermodynamic from solid, pH 4.0, SD in parenthesis, n = 3, read-out: AD Solubility, extrapolated (from Equation (1))): 139 µM (≈ 69.7 µg/mL); solubility at 30 min ([4]; aqueous buffer, thermodynamic from solid, pH 5.5, SD in parenthesis, n = 3, read-out: AD Solubility, extrapolated (from Equation (1))): 128 µM (≈ 64.2 µg/mL); solubility at 30 min ([4]; aqueous buffer, thermodynamic from solid, pH 7.4, SD in parenthesis, n = 3, read-out: AD Solubility, extrapolated (from Equation (1))): 123 µM (≈ 61.7 µg/mL); solubility at 30 min ([4]; pH 1.5, read-out: Solubility for AD indicated by the plateaus of the cocrystal profiles): ~300 µM (≈ 150 µg/mL); Saturation concentration of AD ([4]; rest of pH values (4.0, 5.5, 7.4), particularly pH 5.5 and 7.4): around 100 μM
2 | CC(C)(C)C(=O)OCOP(=O)(COCCn1cnc2c(N)ncnc21)OCOC(=O)C(C)(C)C.Cc1cc(O)cc(O)c1 [AD–Orc cocrystal] | rapid transfer of AD towards the organic layer | Cocrystal + AD–dihydrate (90%:10%) | Cocrystal + AD–dihydrate (90%:10%) | Cocrystal + AD–dihydrate (90%:10%) | Cocrystal + AD–dihydrate (90%:10%) | 626 (40) nmols/min | 39.2 (1.1) % | 147 (47) nmols/min | 14.7 (1.6) % | 17 (1) nmols/min | 10.6 (2.5) % | 17 (3) nmols/min | 13.1 (3.6) % | –
3 | CC(C)(C)C(=O)OCOP(=O)(COCCn1cnc2c(N)ncnc21)OCOC(=O)C(C)(C)C.Oc1cccc(O)c1 [AD–Res cocrystal (Form I)] | rapid transfer of AD towards the organic layer | Cocrystal (Form I) + AD–dihydrate (95%:5%) | Cocrystal (Form I) + AD–dihydrate (95%:5%) | Cocrystal (Form I) + AD–dihydrate (95%:5%) | Cocrystal (Form I) + AD–dihydrate (95%:5%) | 1015 (6) nmols/min | 39.3 (1.3) % | 63 (2) nmols/min | 16.1 (2.0) % | 19 (1) nmols/min | 12.2 (2.0) % | 15 (1) nmols/min | 10.9 (2.7) % | –
4 | CC(C)(C)C(=O)OCOP(=O)(COCCn1cnc2c(N)ncnc21)OCOC(=O)C(C)(C)C.Oc1ccc(O)cc1 [AD–hydroquinone cocrystal] | slightly slower | – | – | – | – | – | – | – | – | – | – | – | – | Slope of dissolution profile in the first pH sector ([1]; pH 1.5, aqueous phase): inferior slope compared to the cocrystals with resorcinol and orcinol

Reference: publication PMC9692677, “Virtual Cocrystal Screening of Adefovir Dipivoxyl: Identification of New Solid Forms with Improved Dissolution and Permeation Profiles” (Pharmaceutics, 2022)
